Test results reported in patent publication US5739171A, “Method for promoting animal growth” (priority 1993, dated 1998).
Where two headings read alike, the source gives them in different places.

Columns and labels:
[1] = acute toxicity by oral administration (LD50), rats; settings: rat, in vivo
Text: Safety of the effective components of the composition of the present invention will be given hereunder. For example, acute toxicity by oral administration of sodium o-nitrophenol, sodium p-nitrophenol and sodium 5-nitroguaiacol is as follows:
Acute toxicity by oral administration is low. In addition, it has been also confirmed that those compounds are without problem in terms of toxicity by chronic toxicity test, teratogenic test and carcinogenic test. Further, as mentioned above, those compounds have been used as plant growth regulators and hair growth promoters throughout the world. In the past, they were used as injections but there was no example of adverse affection on the animals who took the plants to which they were applied, on the persons who were injected therewith and on the persons using the hair growth promoters containing them. Thus, their safety in humans has been practically confirmed. As mentioned above, o-nitrophenol, p-nitrophenol, 5-nitroguaiacol and salts thereof which are active ingredient(s) of the methods for growth promoting of the present invention have high safety.

Tilapia fry = type: in vivo; settings: feed with 10 ppm of a single salt; for Body Weight Increase per 1 Tilapia after 4 Weeks: control 3.78; for Body Weight Increase per 1 Tilapia after 8 Weeks: control 10.10
Procedure: Tilapia fry with average body weight 2 g were used. Commercial feed for tilapia was given twice a day (morning and evening) in an amount of 5 to 8% of the body weight. The control group was given the commercial feed only, while the treated groups were given the commercial feed with the addition of the test compound(s) o-nitrophenol, p-nitrophenol and/or 5-nitroguaiacol, in the amount(s) shown in Table 3. Body weights were measured after 4 and 8 weeks.

[2] = female rats, read-out: LD50 for rats (female)
[3] = male rats, read-out: LD50 for rats (male)

| SMILES | LD50 [1, 2] [mg/kg] | LD50 [1, 3] [mg/kg] | Body Weight Increase per 1 Tilapia after 4 Weeks (Tilapia fry) [g] | Body Weight Increase per 1 Tilapia after 4 Weeks, relative to control (100) (Tilapia fry) | Body Weight Increase per 1 Tilapia after 8 Weeks (Tilapia fry) [g] | Body Weight Increase per 1 Tilapia after 8 Weeks, relative to control (100) (Tilapia fry) |
| --- | --- | --- | --- | --- | --- | --- |
| COc1ccc([N+](=O)[O-])cc1O [Sodium 5-nitroguaiacol, sodium 5-nitroguaiacol] | 1270 | 3100 | 4.08 | 108 | 11.09 | 110 |
| O=[N+]([O-])c1ccccc1O.[Na] [Sodium o-nitrophenol, sodium o-nitrophenol] | 1460 | 2050 | 3.97 | 105 | 10.71 | 106 |
| O=[N+]([O-])c1ccc(O)cc1.[Na] [Sodium p-nitrophenol, sodium p-nitrophenol] | 482 | 1250 | 4.04 | 107 | 10.61 | 105 |
